The values below come from patent publication US20080009418A1, “Selective Inhibitors” (Alchemia LTD., priority 2004, published 2008).

Test [1] deals with T1, Human δ-opioid (DOP) (Homo sapiens, UniProt P41143).
T1 construct: purchased Perkin Elmer Biosignal
The test is described as follows: Radioligand binding, human δ-opioid (DOP) membranes, FlashPlate, [3H]-Bremazocine. The following applies: compound at 10 μM; [3H]-Bremazocine, human DOP membranes. In outline: (§1)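 Cloned human receptor membranes were coated onto FlashPlate wells and incubated with radioligand and compound (added from a 0.5 mM DMSO daughter plate) for 1 hour at room temperature in the dark. Scintillation counting gave percent inhibition, with DMSO defining total and reference ligand defining non-specific binding.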

The target in test [2] is T2, Human κ-Opioid (KOP) (Homo sapiens, UniProt P41145).
T2 construct: purchased Perkin Elmer Biosignal
T2 sequence (P41145 whole entry): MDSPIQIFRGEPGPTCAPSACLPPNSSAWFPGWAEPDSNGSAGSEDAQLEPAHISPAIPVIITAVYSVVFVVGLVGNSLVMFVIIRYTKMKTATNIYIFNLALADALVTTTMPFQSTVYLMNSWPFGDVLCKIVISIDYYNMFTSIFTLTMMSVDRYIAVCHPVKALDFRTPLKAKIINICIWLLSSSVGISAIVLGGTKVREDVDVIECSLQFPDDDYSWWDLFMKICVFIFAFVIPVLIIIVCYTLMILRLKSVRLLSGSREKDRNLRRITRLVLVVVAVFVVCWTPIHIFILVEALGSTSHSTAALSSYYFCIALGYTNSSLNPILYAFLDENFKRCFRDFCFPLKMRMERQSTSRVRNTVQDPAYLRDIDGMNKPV
Put plainly: Radioligand binding, human κ-opioid (KOP) membranes, filtration, [3H]-Diprenorphine. The conditions noted are these: compound at 10 μM; [3H]-Diprenorphine, human KOP membranes. In outline: (§2)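 Filtration binding on cloned human receptor membranes (1 Unit/well), [125I]-Substance P for NK1 and [3H]-Diprenorphine for KOP, 1 h at room temperature. Filters PEI-presoaked, washed with cold 50 mM Tris-HCl pH 7.4, counted by scintillation; percent inhibition calculated, reference ligand defining non-specific binding.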

The target of test [3] is T3, Human Melanocortin (MC3) (Homo sapiens, UniProt P41968).
T3 construct: purchased Perkin Elmer Biosignal
T3 sequence (P41968 whole entry): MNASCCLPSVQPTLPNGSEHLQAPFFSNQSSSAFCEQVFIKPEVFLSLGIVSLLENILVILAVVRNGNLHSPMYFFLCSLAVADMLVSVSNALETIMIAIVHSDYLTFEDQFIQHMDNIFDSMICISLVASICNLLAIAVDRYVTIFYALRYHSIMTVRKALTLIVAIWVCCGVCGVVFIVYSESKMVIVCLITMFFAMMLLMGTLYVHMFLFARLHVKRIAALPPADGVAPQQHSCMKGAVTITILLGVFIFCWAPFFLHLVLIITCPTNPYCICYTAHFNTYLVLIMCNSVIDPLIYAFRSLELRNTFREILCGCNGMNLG
The test is described as follows: Radioligand binding, human melanocortin MC3 membranes, FlashPlate, [125I]-NDP-αMSH. The following applies: compound at 10 μM; [125I]-NDP-αMSH, human MC3 membranes. In short, it runs like this: as §1

Test [4] deals with T4, Human Melanocortin (MC4) (Homo sapiens, UniProt P32245).
T4 construct: purchased Perkin Elmer Biosignal
T4 sequence (P32245 whole entry): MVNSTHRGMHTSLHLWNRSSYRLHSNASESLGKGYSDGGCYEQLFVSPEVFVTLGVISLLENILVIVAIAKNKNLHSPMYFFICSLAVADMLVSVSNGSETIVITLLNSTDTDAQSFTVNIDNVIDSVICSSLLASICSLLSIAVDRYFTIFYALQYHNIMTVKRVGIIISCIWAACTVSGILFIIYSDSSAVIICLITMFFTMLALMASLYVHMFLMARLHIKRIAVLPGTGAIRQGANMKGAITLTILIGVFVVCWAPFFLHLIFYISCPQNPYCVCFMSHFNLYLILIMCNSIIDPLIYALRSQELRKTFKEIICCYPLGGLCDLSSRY
The test is described as follows: Radioligand binding, human melanocortin MC4 membranes, FlashPlate, [125I]-NDP-αMSH. The conditions noted are these: compound at 10 μM; [125I]-NDP-αMSH, human MC4 membranes. In outline:
as §1

The target of test [5] is T5, Human melanocortin (MC5) (Homo sapiens, UniProt P33032).
T5 construct: purchased Perkin Elmer Biosignal
T5 sequence (P33032 whole entry): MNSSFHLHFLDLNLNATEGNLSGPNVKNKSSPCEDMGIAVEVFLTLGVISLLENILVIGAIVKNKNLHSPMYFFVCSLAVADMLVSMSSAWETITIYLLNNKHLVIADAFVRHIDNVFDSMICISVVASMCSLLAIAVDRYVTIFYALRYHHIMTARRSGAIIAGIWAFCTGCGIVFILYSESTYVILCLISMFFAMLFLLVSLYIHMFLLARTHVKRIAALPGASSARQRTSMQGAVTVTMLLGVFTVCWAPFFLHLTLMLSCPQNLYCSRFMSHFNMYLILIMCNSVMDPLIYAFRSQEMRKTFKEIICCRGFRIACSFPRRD
The test is described as follows: Radioligand binding, human melanocortin MC5 membranes, FlashPlate, [125I]-NDP-αMSH. The conditions noted are these: compound at 10 μM; [125I]-NDP-αMSH, human MC5 membranes. In short, it runs like this: as §1

Test [6] addresses T6, Human melanin-concentrating hormone (MCH1) (Homo sapiens, UniProt Q99705).
T6 construct: purchased Perkin Elmer Biosignal
Put plainly: Radioligand binding, human melanin-concentrating hormone MCH1 membranes, FlashPlate, [125I]-S36057. The following applies: compound at 10 μM; [125I]-S36057, human MCH1 membranes. In short, it runs like this:
as §1

In test [7] the target is T7, Human μ-opioid (MOP) (Homo sapiens, UniProt P35372).
T7 construct: purchased Perkin Elmer Biosignal
T7 sequence (P35372 whole entry): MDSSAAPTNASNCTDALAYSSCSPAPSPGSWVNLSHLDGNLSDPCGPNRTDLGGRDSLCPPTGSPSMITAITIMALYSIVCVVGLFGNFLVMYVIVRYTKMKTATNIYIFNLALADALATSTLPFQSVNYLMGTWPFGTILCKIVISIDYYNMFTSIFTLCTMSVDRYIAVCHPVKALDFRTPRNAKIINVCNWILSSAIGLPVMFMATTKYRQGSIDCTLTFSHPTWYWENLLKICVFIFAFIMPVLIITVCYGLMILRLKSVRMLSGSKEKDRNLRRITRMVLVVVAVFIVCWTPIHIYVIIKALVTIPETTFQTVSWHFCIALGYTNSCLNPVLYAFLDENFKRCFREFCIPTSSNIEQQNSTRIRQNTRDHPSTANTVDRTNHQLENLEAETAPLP
The test is described as follows: Radioligand binding, human μ-opioid (MOP) membranes, FlashPlate, [3H]-Naloxone. The following applies: compound at 10 μM; [3H]-Naloxone, human MOP membranes. In outline:
as §1

Test [8] concerns the target T8, Human neurokinin (NK1) (Homo sapiens, UniProt P25103).
T8 construct: purchased Perkin Elmer Biosignal
Put plainly: Radioligand binding, human neurokinin NK1 membranes, filtration, [125I]-Substance P. The conditions noted are these: compound at 10 μM; [125I]-Substance P, human NK1 membranes. In outline: as §2

For test [9], the target named is T9, Human neuropeptide Y (NPY-Y1) (Homo sapiens, UniProt P25929).
T9 construct: purchased Perkin Elmer Biosignal
T9 sequence (P25929 1-384): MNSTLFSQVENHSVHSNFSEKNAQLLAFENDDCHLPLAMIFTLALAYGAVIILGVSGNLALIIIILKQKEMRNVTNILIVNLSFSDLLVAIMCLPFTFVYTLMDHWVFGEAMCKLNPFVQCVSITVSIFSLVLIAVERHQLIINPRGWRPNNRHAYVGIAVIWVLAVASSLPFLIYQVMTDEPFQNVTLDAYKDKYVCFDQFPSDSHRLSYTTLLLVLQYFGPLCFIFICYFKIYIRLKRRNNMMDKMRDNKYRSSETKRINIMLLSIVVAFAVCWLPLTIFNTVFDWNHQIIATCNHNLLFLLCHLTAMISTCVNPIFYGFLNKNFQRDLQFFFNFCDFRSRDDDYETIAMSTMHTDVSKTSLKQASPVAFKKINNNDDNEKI
The test is described as follows: Radioligand binding, human neuropeptide Y NPY-Y1 membranes, FlashPlate, [125I]-PYY. The conditions noted are these: compound at 10 μM; [125I]-PYY, human NPY-Y1 membranes. In outline:
as §1

In test [10] the target is T10, Human opioid (ORL1) (Homo sapiens, UniProt P41146).
T10 construct: purchased Perkin Elmer Biosignal
T10 sequence (P41146 whole entry): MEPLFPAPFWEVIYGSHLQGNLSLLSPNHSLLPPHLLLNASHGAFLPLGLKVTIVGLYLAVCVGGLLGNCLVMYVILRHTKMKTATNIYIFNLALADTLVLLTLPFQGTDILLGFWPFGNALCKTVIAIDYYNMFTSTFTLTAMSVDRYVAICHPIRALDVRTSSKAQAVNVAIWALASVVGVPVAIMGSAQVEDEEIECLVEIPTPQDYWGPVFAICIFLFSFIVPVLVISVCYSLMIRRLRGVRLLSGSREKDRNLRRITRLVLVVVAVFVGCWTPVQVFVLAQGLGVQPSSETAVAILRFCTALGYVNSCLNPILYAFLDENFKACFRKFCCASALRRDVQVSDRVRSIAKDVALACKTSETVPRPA
Put plainly: Radioligand binding, human opioid ORL1 membranes, FlashPlate, [125I]-Nociceptin. The following applies: compound at 10 μM; [125I]-Nociceptin, human ORL1 membranes. In outline:
as §1

The target in test [11] is T11, Mouse urotensin (mUR2) (Mus musculus, UniProt Q8VIH9).
T11 construct: purchased Perkin Elmer Biosignal
T11 sequence (Q8VIH9 1-385): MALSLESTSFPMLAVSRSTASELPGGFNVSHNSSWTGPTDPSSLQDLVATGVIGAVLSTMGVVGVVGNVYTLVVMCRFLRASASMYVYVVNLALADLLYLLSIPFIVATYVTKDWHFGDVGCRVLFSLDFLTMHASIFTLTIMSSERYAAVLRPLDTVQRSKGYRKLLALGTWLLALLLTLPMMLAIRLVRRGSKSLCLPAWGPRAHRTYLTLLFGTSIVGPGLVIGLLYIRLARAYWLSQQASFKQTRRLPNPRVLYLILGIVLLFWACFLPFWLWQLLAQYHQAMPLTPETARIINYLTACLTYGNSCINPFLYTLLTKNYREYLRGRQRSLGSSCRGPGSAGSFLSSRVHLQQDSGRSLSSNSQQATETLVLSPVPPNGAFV
Put plainly: Radioligand binding, mouse urotensin mUR2 membranes, FlashPlate, [125I]-Urotensin II. The conditions noted are these: compound at 10 μM; [125I]-Urotensin II, mouse mUR2 membranes. In short, it runs like this:
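Cloned mouse urotensin (mUR2) receptor membranes from Perkin Elmer Biosignal were immobilized in FlashPlate microplates using a proprietary coating. Each well got 19.5 μl buffer, then 0.5 μl of DMSO, reference ligand, or compound. Adding 5 μl of [125I]-Urotensin II, diluted to 5× final concentration in binding buffer, started binding. Plates were sealed with TopSeal-A and incubated 1 hour at room temperature in the dark. Wells were counted for 30 seconds each on a TopCount after a 60-second delay, and percentage inhibition was calculated.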

T8 sequence (P25103 whole entry): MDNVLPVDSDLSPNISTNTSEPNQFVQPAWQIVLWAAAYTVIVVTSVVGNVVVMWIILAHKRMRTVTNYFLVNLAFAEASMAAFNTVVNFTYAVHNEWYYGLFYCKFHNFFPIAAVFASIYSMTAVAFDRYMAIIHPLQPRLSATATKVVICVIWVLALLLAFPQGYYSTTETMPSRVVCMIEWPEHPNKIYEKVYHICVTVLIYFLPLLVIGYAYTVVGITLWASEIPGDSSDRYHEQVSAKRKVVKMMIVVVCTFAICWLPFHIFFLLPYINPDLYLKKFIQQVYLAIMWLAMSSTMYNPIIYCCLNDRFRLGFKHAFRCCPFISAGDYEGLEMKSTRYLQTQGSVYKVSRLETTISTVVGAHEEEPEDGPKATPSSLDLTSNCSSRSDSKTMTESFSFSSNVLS
T1 sequence (P41143 whole entry): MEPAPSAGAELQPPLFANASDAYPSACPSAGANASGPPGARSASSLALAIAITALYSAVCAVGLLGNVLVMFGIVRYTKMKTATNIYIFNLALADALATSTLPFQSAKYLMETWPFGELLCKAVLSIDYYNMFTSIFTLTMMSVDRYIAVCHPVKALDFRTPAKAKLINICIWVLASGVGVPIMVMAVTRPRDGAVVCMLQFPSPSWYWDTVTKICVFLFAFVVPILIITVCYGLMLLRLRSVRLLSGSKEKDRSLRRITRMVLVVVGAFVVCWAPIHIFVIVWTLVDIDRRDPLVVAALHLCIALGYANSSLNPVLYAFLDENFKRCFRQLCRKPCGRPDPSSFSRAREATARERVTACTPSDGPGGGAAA
T6 sequence (Q99705 whole entry): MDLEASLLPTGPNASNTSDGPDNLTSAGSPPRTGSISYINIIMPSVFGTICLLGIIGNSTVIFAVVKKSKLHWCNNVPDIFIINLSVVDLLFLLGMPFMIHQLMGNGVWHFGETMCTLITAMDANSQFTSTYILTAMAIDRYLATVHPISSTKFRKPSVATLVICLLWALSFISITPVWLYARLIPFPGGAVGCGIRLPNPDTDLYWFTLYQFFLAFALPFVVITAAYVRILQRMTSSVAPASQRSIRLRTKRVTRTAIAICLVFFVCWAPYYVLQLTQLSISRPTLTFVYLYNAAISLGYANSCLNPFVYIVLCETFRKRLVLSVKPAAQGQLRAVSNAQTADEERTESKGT

Regarding `N=C(N)NCC(=O)NC1C(OCc2ccc(-c3ccccc3)cc2)OC(COCc2ccc(Cl)cc2)C(O)C1OCc1ccc2ccccc2c1` (stereo not drawn) [compound 404], the “A1: inhibition of radioligand binding” value in test [1] is reported as “− (“−” indicates less than 50% inhibition at 10 μM)”. For the same compound, the “A2: inhibition of radioligand binding” value in [2] is on record as “− (“−” indicates less than 50% inhibition at 10 μM)”. The “A3: inhibition of radioligand binding” value in [3] is “+ (“+” indicates greater than 50% inhibition at 10 μM)”. The “A4: inhibition of radioligand binding” value in test [4] was “+ (“+” indicates greater than 50% inhibition at 10 μM)”. In addition, the “A5: inhibition of radioligand binding” value in [5] is reported as “+ (“+” indicates greater than 50% inhibition at 10 μM)”. The “A6: inhibition of radioligand binding” value in test [6] is reported as “− (“−” indicates less than 50% inhibition at 10 μM)”. In test [7], the “A7: inhibition of radioligand binding” value is reported as “− (“−” indicates less than 50% inhibition at 10 μM)”. Besides, the “A8: inhibition of radioligand binding” value in [8] is on record as “+ (“+” indicates greater than 50% inhibition at 10 μM)”. In [9], the “A9: inhibition of radioligand binding” value was “− (“−” indicates less than 50% inhibition at 10 μM)”. For the same compound, the “A10: inhibition of radioligand binding” value in test [10] is given as “+ (“+” indicates greater than 50% inhibition at 10 μM)”. Moreover, in test [11], the “A11: inhibition of radioligand binding” value is “− (“−” indicates less than 50% inhibition at 10 μM)”.
`N=C(N)NCC(=O)NC1C(OCc2ccc(-c3ccccc3)cc2)OC(COCc2ccc3ccccc3c2)C(O)C1OCc1ccc(-c2ccccc2)cc1` (stereo not drawn) [compound 405]: the “A1: inhibition of radioligand binding” value in test [1] was “− (“−” indicates less than 50% inhibition at 10 μM)”. Further, the “A2: inhibition of radioligand binding” value in test [2] is “− (“−” indicates less than 50% inhibition at 10 μM)”. Besides, the “A3: inhibition of radioligand binding” value in [3] is “+ (“+” indicates greater than 50% inhibition at 10 μM)”. Also, the “A4: inhibition of radioligand binding” value in test [4] is “− (“−” indicates less than 50% inhibition at 10 μM)”. Moreover, the “A5: inhibition of radioligand binding” value in [5] is given as “+ (“+” indicates greater than 50% inhibition at 10 μM)”. Also, in test [6], the “A6: inhibition of radioligand binding” value is given as “− (“−” indicates less than 50% inhibition at 10 μM)”. For the same compound, the “A7: inhibition of radioligand binding” value in test [7] is “− (“−” indicates less than 50% inhibition at 10 μM)”. Moreover, the “A8: inhibition of radioligand binding” value in test [8] is listed as “+ (“+” indicates greater than 50% inhibition at 10 μM)”. Besides, the “A9: inhibition of radioligand binding” value in test [9] is on record as “− (“−” indicates less than 50% inhibition at 10 μM)”. Further, in [10], the “A10: inhibition of radioligand binding” value is given as “− (“−” indicates less than 50% inhibition at 10 μM)”. Besides, the “A11: inhibition of radioligand binding” value in [11] is “− (“−” indicates less than 50% inhibition at 10 μM)”.
As to `N=C(N)NCC(=O)NC1C(OCc2ccc(-c3ccccc3)cc2)OC(COCc2ccccc2)C(O)C1OCc1ccc(-c2ccccc2)cc1` (stereo not drawn) [compound 406], in [1], the “A1: inhibition of radioligand binding” value is reported as “− (“−” indicates less than 50% inhibition at 10 μM)”. Moreover, in [2], the “A2: inhibition of radioligand binding” value is recorded as “− (“−” indicates less than 50% inhibition at 10 μM)”. In [3], the “A3: inhibition of radioligand binding” value is listed as “+ (“+” indicates greater than 50% inhibition at 10 μM)”. Moreover, the “A4: inhibition of radioligand binding” value in test [4] is “+ (“+” indicates greater than 50% inhibition at 10 μM)”. In addition, in test [5], the “A5: inhibition of radioligand binding” value was “+ (“+” indicates greater than 50% inhibition at 10 μM)”. Also, the “A6: inhibition of radioligand binding” value in test [6] was “− (“−” indicates less than 50% inhibition at 10 μM)”. In addition, the “A7: inhibition of radioligand binding” value in test [7] is reported as “− (“−” indicates less than 50% inhibition at 10 μM)”. Moreover, the “A8: inhibition of radioligand binding” value in [8] is “+ (“+” indicates greater than 50% inhibition at 10 μM)”. Also, the “A9: inhibition of radioligand binding” value in test [9] is given as “− (“−” indicates less than 50% inhibition at 10 μM)”. Moreover, the “A10: inhibition of radioligand binding” value in [10] was “+ (“+” indicates greater than 50% inhibition at 10 μM)”. In addition, in test [11], the “A11: inhibition of radioligand binding” value is “− (“−” indicates less than 50% inhibition at 10 μM)”.
